Assay results: patent US4513008A, “Virucidal compositions and therapy” (The Vinoxen Company, Inc., priority 1982, dated 1985)
Entries after “also recorded” stand apart in the source; their conditions may differ.

Tested on: HSV-2
Assay: In vivo mouse bioassay: intravaginal HSV-2 infection, topical treatment
Design: species or system HSV-2 strain 333 in female Swiss Webster mice; key to Max. Lesion Score: 0: no clinical signs of vaginal infection; ±: slight perivaginal redness; perivaginal redness and swelling of 1-2 mm; perivaginal redness and swelling of 2-3 mm; perivaginal and perianal redness and swelling of 3-4 mm; perivaginal and perianal redness and swelling of 4 mm or more, with exudate
Conditions: for # Infected, Day 14 / # of Deaths, Day 14: 10 animals/group

CCC=CCC=CCC=CCC=CCC=CCC=CCCC(=O)O [DHA, 4,7,10,13,16,19 Docosahexaenoic Acid]
% Mortality (DMSO & High DHA (10 mg/ml)): 20% | Day of Maximum % Morbidity (DMSO & High DHA (10 mg/ml)): 7 days | Maximum % Morbidity (DMSO & High DHA (10 mg/ml)): 40% | Mean Day of Death (DMSO & High DHA (10 mg/ml)): 8.5 days | % Mortality (DMSO & Low DHA (1 mg/ml)): 30% | Day of Maximum % Morbidity (DMSO & Low DHA (1 mg/ml)): 7 days | Maximum % Morbidity (DMSO & Low DHA (1 mg/ml)): 40% | Mean Day of Death (DMSO & Low DHA (1 mg/ml)): 11.7 days | # Infected, Day 14 (High DHA 10 mg/ml in DMSO): 4 | # of Deaths, Day 14 (High DHA 10 mg/ml in DMSO): 2 | # Infected, Day 14 (High DHA 10 mg/ml in PEG): 5 | # of Deaths, Day 14 (High DHA 10 mg/ml in PEG): 3 | # Infected, Day 14 (Low DHA 1 mg/ml in DMSO): 4 | # of Deaths, Day 14 (Low DHA 1 mg/ml in DMSO): 2 | Max. Lesion Score (Low DHA 1 mg/ml in PEG): ± | # Infected, Day 14 (Low DHA 1 mg/ml in PEG): 1 | # of Deaths, Day 14 (Low DHA 1 mg/ml in PEG): 0 | % Mortality (Ointment & High DHA (10 mg/ml)): 30% | Day of Maximum % Morbidity (Ointment & High DHA (10 mg/ml)): 7 days | Maximum % Morbidity (Ointment & High DHA (10 mg/ml)): 50% | Mean Day of Death (Ointment & High DHA (10 mg/ml)): 11.7 days | % Mortality (Ointment & Low DHA (1 mg/ml)): 0% | Day of Maximum % Morbidity (Ointment & Low DHA (1 mg/ml)): 6 days | Maximum % Morbidity (Ointment & Low DHA (1 mg/ml)): 10% | Mean Day of Death (Ointment & Low DHA (1 mg/ml)): > 14 days | efficacy in mice in words (topical, HSV-2 infected mice): effective virucidal activity against HSV-2, especially the low dose ointment preparation; also recorded: highly effective in comparison with ACV in reducing lesions and in reducing mortality rates in mice; also recorded: a low dose of DHA in the particular ointment vehicle used for test purposes appeared to have a higher activity than a high dose of the same material in the same vehicle
